From patent publication US9815841B2, “Compounds” (GLAXOSMITHKLINE INTELLECTUAL PROPERTY DEVELOPMENT LIMITED, priority 2014, dated 2017)

Biological target: T1, recombinant full length LRRK2 over-expressed in SH-SY5Y cells (Homo sapiens, UniProt Q5S007)
T1 construct: A BacMam virus expressing full length recombinant LRRK2 was purchased from Invitrogen; host or cells: SH-SY5Y human neuroblastoma cells transduced with BacMam LRRK2 virus
Assay: Recombinant cellular LRRK2 AlphaScreen assay (LRRK2 Ser935 phosphorylation)
Assay type: cell-based
Settings: SH-SY5Y cells with BacMam LRRK2, 60 minutes compound incubation, read-out: recombinant cellcular LRRK2 alphaScreen assay (pIC50) (converted)
Description: Recombinant Cellular LRRK2 AlphaScreen Assay
A BacMam virus expressing full length recombinant LRRK2 was purchased from Invitrogen and amplified by inoculation of SF-9 cells at MOI 0.3 for 4-5 days in Sf-900 III SFM medium supplemented with 3% fetal bovine serum. Infected cell cultures were then centrifuged at 2000 g for 20 minutes, viral supernatant titer determined by anti-gp64 plaque assay and stored at 4° C.
Affinity-purified anti-phospho LRRK2 Ser935 sheep polyclonal antibody (Dzamko et al., 2010, Biochem. J. 430: 405-413) was biotinylated by standard methods (PerkinElmer). Anti-LRRK2 rabbit polyclonal antibody was purchased from Novus Biologicals. AlphaScreen Protein A IgG Kit (including acceptor and donor beads) was purchased from Perkin Elmer.
SH-SY5Y cells were grown in DMEM/F12 medium with 10% dialysed fetal bovine serum and harvested by treatment with 0.5% trypsin-EDTA for 5 minutes at […] followed by centrifugation at 1000 rpm for 4 minutes. The cell pellet was resuspended in Opti-MEM reduced serum media (Invitrogen) at 200,000 cells/ml and mixed with the BacMam LRRK2 virus at MOI=50. 50 μl cell solutions were then dispensed to each well of a 384-well plate and incubated at 37° C., 5% CO2 for 24 hours.
Serial dilutions of test compounds were prepared in Opti-MEM reduced serum media (Invitrogen) and 5.6 ul transferred from compound plate to cell assay plate to achieve a top final assay concentration of 10 uM. DMSO was used in certain wells as controls. Cells were incubated at 37° C., 5% CO2 for 60 minutes. The medium was then removed and cells lysed by addition of 20 ul cell lysis buffer (Cell Signaling Technology) and incubation at 4° C. for 20 minutes. 10 ul of antibody/acceptor bead mix [(1/1000 biotinylated-pS935 LRRK2 antibody, 1/1000 total-LRRK2 antibody, 1/100 Acceptor beads in AlphaScreen detection buffer (25 mM Hepes (pH 7.4), 0.5% Triton X-100, 1 mg/ml Dextran 500 and 0.1% BSA)] was then added to each well and plates incubated for 2 hours at ambient temperature in the dark. 10 μl of donor beads solution (1/33.3 donor beads in AlphaScreen detection buffer) was then added to each well. Following incubation for a further 2 hours at ambient temperature in the dark, plates were read on an EnVision™ plate reader at emission 520-620 nm with excitation 680 nm. Dose response curve data was based on sigmoidal dose-response model.

T1 sequence (Q5S007 whole entry): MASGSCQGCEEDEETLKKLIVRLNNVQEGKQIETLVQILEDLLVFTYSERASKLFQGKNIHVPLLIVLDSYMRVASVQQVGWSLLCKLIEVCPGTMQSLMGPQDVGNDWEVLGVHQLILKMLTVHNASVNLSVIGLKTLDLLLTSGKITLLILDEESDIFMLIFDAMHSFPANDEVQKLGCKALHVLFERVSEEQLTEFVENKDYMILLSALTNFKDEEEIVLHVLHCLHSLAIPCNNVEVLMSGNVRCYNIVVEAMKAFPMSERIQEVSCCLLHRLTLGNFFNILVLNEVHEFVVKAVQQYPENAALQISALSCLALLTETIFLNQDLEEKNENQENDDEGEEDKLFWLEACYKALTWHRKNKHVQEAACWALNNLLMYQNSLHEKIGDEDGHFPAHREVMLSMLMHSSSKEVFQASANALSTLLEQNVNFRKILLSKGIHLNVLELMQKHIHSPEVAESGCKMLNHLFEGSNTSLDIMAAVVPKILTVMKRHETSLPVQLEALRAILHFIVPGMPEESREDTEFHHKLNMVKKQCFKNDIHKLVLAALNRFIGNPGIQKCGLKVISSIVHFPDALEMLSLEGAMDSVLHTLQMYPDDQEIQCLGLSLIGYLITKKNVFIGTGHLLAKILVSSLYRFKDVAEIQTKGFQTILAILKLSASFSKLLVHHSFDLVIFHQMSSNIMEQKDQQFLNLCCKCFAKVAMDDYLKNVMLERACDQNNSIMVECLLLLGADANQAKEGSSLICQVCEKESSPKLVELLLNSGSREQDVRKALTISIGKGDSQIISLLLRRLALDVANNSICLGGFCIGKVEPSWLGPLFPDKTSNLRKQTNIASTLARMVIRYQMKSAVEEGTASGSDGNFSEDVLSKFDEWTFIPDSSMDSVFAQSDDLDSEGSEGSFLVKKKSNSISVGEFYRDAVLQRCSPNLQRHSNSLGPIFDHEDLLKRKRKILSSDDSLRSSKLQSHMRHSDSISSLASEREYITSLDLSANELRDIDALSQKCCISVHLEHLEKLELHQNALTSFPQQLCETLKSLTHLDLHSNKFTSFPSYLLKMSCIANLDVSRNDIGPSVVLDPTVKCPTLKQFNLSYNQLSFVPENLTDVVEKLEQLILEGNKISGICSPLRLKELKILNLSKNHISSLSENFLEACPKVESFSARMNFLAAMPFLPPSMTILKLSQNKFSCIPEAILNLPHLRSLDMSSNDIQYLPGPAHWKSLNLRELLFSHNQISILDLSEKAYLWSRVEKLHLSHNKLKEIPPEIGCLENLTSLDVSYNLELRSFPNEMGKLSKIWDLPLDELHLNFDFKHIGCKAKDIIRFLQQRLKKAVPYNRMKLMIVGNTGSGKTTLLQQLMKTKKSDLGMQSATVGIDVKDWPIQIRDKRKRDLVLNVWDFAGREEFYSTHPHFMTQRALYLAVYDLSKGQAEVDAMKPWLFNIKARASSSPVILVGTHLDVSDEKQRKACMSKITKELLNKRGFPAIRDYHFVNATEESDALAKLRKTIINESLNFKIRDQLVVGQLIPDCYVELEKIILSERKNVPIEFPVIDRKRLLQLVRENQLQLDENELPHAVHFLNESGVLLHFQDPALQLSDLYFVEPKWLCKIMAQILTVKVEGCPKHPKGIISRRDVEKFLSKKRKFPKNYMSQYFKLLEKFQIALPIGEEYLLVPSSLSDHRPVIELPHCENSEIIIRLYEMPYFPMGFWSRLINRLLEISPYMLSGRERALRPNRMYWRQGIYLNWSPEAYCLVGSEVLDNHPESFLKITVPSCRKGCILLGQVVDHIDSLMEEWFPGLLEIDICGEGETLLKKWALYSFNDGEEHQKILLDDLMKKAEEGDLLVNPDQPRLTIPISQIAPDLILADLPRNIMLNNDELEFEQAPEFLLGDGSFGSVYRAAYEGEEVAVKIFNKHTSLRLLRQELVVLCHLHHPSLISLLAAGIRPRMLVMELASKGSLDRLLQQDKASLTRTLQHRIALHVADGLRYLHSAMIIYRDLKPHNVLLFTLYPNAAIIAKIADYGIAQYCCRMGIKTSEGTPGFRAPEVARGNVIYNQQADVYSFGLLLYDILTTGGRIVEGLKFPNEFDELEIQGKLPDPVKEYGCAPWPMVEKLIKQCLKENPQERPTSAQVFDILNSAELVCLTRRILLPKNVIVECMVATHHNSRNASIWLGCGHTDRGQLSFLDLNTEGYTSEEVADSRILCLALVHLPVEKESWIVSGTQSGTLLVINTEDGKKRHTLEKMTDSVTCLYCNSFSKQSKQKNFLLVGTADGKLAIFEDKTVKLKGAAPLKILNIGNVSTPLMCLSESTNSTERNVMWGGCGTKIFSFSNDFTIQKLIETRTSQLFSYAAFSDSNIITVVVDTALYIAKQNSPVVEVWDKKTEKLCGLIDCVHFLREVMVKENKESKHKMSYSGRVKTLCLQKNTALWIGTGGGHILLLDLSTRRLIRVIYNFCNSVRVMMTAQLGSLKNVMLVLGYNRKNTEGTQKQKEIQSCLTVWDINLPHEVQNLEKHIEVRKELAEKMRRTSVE

With `COc1cc(C(=O)N2CCN(C)CC2)ccc1Nc1nc(OCC2CC2)c2cc[nH]c2n1` [Example E33, (4-((4-(cyclopropylmethoxy)-7H-pyrrolo-[2,3-d]pyrimidin-2-yl)amino)-3-methoxyphenyl)(4-methylpiperazin-1-yl) methanone] as the compound, how does the IC50 read?
Its IC50 is no more than 100 nM.

`CCOc1nc(Nc2ccc(C(=O)N3CCOC[C@H]3C)cc2OC)nc2[nH]ccc12` [Example E30, (R)-(4-((4-ethoxy-7H-pyrrolo[2,3-d]pyrimidin-2-yl)amino)-3-methoxyphenyl)(3-methylmorpholino)methanone] was tested. Which IC50 did it give?
Its IC50 is no more than 100 nM.

For `CCOc1nc(Nc2ccc(C(=O)N3CCOCC3)c(OC)c2)nc2[nH]ccc12` [Example E18, (4-((4-ethoxy-7H-pyrrolo-[2,3-d]-pyrimidin-2-yl)amino)-2-methoxyphenyl)(morpholino)methanone], which IC50 is on record?
The IC50 was no more than 100 nM.

`CCOc1nc(Nc2ccc(C(=O)N3CCN(C)CC3)cc2)nc2[nH]ccc12` [Example E15, (4-((4-ethoxy-7H-pyrrolo-[2,3-d]-pyrimidin-2-yl)amino)phenyl)(4-methylpiperazin-1-yl)methanone] was tested. Which IC50 did it give?
Its IC50 is no more than 100 nM.

Which IC50 does the source give for `COc1cc(C(=O)N2CCOCC2)ccc1Nc1nc(OCC2CC2)c2cc[nH]c2n1` [Example E34, (4-((4-(cyclopropylmethoxy)-7H-pyrrolo-[2,3-d]pyrimidin-2-yl)amino)-3-methoxyphenyl)(morpholino)methanone] here?
Its IC50 is no more than 100 nM.

For `CCOc1nc(Nc2ccc(C(=O)N3CCOCC3)cc2OC)nc2[nH]cc(C#N)c12` [Example E59, 4-ethoxy-2-((2-methoxy-4-(morpholine-4-carbonyl)phenyl)amino)-7H-pyrrolo[2,3-d]pyrimidine-5-carbonitrile], which IC50 is on record?
Its IC50 is no more than 100 nM.

For `CCOc1nc(Nc2ccc(C(=O)N3CCOCC3)cc2OC)nc2[nH]cc(C)c12` [Example E32, (4-((4-ethoxy-5-methyl-7H-pyrrolo-[2,3-d]pyrimidin-2-yl)amino)-3-methoxyphenyl)(morpholino)methanone], which IC50 is on record?
The IC50 was no more than 100 nM.
